Data reported in patent US20120022048A1, “Anti-proliferative substituted pyrazolo[3,4-d]pyrimidines derivatives (SPP) to inhibit immune activation, virus replication and tumor growth” (priority 2010, published 2012).

Assays:
Assay type in all cases: cell-based
[1] = system: primary human CD4 T-lymphocytes; test: Apoptosis in primary CD4 T cells (Annexin V and 7-AAD staining); settings: SPPs 10 μM; for apoptotic effect (in words): compared with HU 100 μM, HU+ddI or untreated control; for apoptosis %: total apoptotic events compared to untreated control, day 10, Imatinib 10 μM, HU 100 μM, ddI 2 μM
Experimental: (§1) Unstimulated (quiescent/resting, day 0 to 5) primary human CD4 T-lymphocytes were obtained by magnetic bead separation from healthy, normal donors. After five days in culture, cells were activated with PHA (5 μg/ml) to induce hyperproliferation then, at day 7, IL-2 (20 U/ml) was added (stimulated, day 6 to 10). All available compounds were tested at a concentration of 10 μM. […] At day 10, cells were harvested. Proliferation of T cells, cultured as described above, was studied by staining the cells with carboxyfluorescein diacetate-succinimidyl ester (CFSE) at day 0 (immediately after infection). For data analysis, the mitotic index (M) was used, calculating the sum of mitotic events at each proliferation cycle. To extract a relative number, M was normalized to the total number of cells acquired using the equation M=Σ[(Xn(T)−Xn(T)/2^n)], that gives the number of mitotic events from the experimentally obtained values of the proportion of T cells under each division peak n (Xn) and the total T cells (T). To study the effect of the compounds on apoptosis T cells were cultured as described above and at day 10 cells were stained with Annexin V and 7-AAD, in order to determine the percentage of total apoptotic events.
We determined the capacity of the compounds to affect the percentages of apoptotic events after 10 days of treatment in primary CD4 T cells.

[2] = system: primary human CD4 T-lymphocytes; test: Cell hyperproliferation in primary T cells (CFSE staining, mitotic index); settings: for mitotic index %: % of not treated control (100%), day 10, HU 100 μM; for mitotic index % / anti-proliferative activity (in words): SPPs 10 μM, Imatinib 10 μM; for anti-proliferative activity (in words): compared with HU 100 μM, HU+ddI or untreated control; for Anti-proliferative capacity: class symbol, Table 6
Experimental: We built up an experimental model using primary T cells to study the activity of the compounds on induced hyperproliferation of cells, which is a characteristic of both chronic viral diseases and cancer including HIV and leukemia.
as §1

HIV-1 NL 4.3 [3] = test: HIV-1 replication in quiescent CD4 T cells (p24 Ag ELISA); settings: for HIV quiescent cells (percentage p24 compared to the untreated control): quiescent CD4 T cells, day 10, HU 100 μM, HU 100 μM+ddI 2 μM; for HIV quiescent cells (percentage p24 compared to the untreated control) / anti-HIV activity in quiescent cells (in words): SPPs 10 μM; for anti-HIV activity in quiescent cells (in words): compared with HU 100 μM, HU+ddI or untreated control; for Antiviral activity in quiescent cells: class symbol, Table 6
Experimental: Unstimulated (quiescent/resting, day 0 to 5) human CD4 T-lymphocytes, obtained by magnetic bead separation from healthy, normal donors, were infected with HIV-1 NL 4.3. After five days in culture, cells were stimulated with PHA (5 μg/ml) to induce proliferation, and then, at day 7, IL-2 (20 U/ml) was added (stimulated, day 6 to 10). All available compounds were tested at a concentration of 10 μM. HU 100 μM and HU 100 μM+ddI 2 μM were also employed as comparators and the negative control was left untreated. At day 10, cells and supernatants were harvested and HIV-1 p24 Ag was measured by ELISA. HIV replication was expressed as percentage p24 compared to the untreated control.

HIV-1 NL 4.3 [4] = test: HIV-1 replication in activated T cells (PBMC, p24 Ag ELISA); settings: for anti-HIV activity in activated T cells (in words): SPPs 10 μM, compared with HU 100 μM, HU+ddI or untreated control; for HIV activated cells (% p24 compared to not treated control): activated T cells, 7 days, SPPs and Imatinib 10 μM, HU 100 μM, ddI 2 μM; for Antiviral activity in activated cells: class symbol, Table 6
Experimental: The experimental setup described below allows us to detect direct antiviral activity of a compound.
Human PBMC, obtained from healthy, normal donors, were stimulated for two days with PHA 5 μg/ml. Then cells were infected with HIV-1 NL 4.3, IL-2 was added (20 U/ml), cells were plated (10^5 cells per well in 200 μl) and drug treatment started. […] The control was left untreated. After 7 days of incubation at 37° C. supernatants were harvested and HIV-1 p24 Ag was measured by ELISA.

Compound | apoptotic effect (in words) [1] | apoptosis % [1] | mitotic index % [2] | anti-proliferative activity (in words) [2] | HIV quiescent cells (percentage p24 compared to the untreated control) (HIV-1 NL 4.3 [3]) | anti-HIV activity in activated T cells (in words) (HIV-1 NL 4.3 [4]) | HIV activated cells (% p24 compared to not treated control) (HIV-1 NL 4.3 [4]) | Anti-proliferative capacity [2] | anti-HIV activity in quiescent cells (in words) (HIV-1 NL 4.3 [3]) | Antiviral activity in quiescent cells (HIV-1 NL 4.3 [3]) | Antiviral activity in activated cells (HIV-1 NL 4.3 [4]) | inhibition at 10 µM ([2]; Homo sapiens, T-lymphocyte, read-out: decrease/inhibition of cell proliferation compared to not treated control)
BrC(Cn1ncc2c(N3CCCCCC3)ncnc21)c1ccccc1 (stereo not shown) [VS1-018] | proapoptotic | 176.0 ± 22.5% | 42.4 ± 21.8% | poor activity | 11.5 ± 3.2% | poor activity | 93.6 ± 28.3% | – | – | – | – | –
CSc1nc(N2CCCCCC2)c2cnn(CC(Cl)c3ccccc3)c2n1 (stereo not shown) [VS1-034] | – | 115.1 ± 34.5% | 25.9 ± 12.9% | comparable or even greater than HU | 22.2 ± 7.0% | – | 65.0 ± 12.0% | – | – | – | – | –
CCCNc1nc(SC)nc2c1cnn2CC(Cl)c1ccccc1 (stereo not shown) [VS1-031] | did not induce apoptosis | 114.4 ± 39.9% | 23.9 ± 18.4% | greater or equal to that of 100 μM HU | 19.1 ± 1.8% | effective against HIV | 31.6 ± 21.7% | +++ (excellent (+++, greater than 70% activity)) | effective against HIV | +++ (excellent (+++, greater than 70% activity)) | ++ (good (++, 50 to 70% activity)) | –
C(=Cn1ncc2c(NCc3ccccc3)ncnc21)c1ccccc1 [VS1-013] | – | 121.3 ± 14.1% | 85.6 ± 3.6% | – | 63.3 ± 26.0% | – | 116.4 ± 21.1% | – | – | – | – | –
CCCCNc1nc(SC)nc2c1cnn2CC(Cl)c1ccccc1 (stereo not shown) [VS1-024] | not proapoptotic | 126.7 ± 23.9% | 45.5 ± 10.9% | equal to or a little less anti-proliferative than HU | 24.3 ± 9.4% | – | 10.1 ± 7.4% | ++ (good (++, 50 to 70% activity)) | slightly less potent against HIV | +++ (excellent (+++, greater than 70% activity)) | +++ (excellent (+++, greater than 70% activity)) | –
Cc1ccc(NC(=O)c2ccc(CN3CCN(C)CC3)cc2)cc1Nc1nccc(-c2cccnc2)n1 [Imatinib, reference compound] | no significant increases | – | – | – | – | comparable antiviral capacity | – | – | – | – | – | 62%
CCCCNc1ncnc2c1cnn2CC(Br)c1ccccc1 (stereo not shown) [VS1-006] | – | – | 54.0% | not effective | 17.8 ± 2.5% | not effective | 100.5 ± 26.4% | – | – | – | – | –
C(=Cn1ncc2c(N3CCCCCC3)ncnc21)c1ccccc1 [VS1-001] | did not induce apoptosis | 80.3 ± 19.2% | 52.0 ± 2.0% | less effective than HU | 19.6 ± 20.3% | very effective inhibitor of HIV replication | 12.5 ± 2.3% | – | very effective inhibitor of HIV replication | – | – | –
BrC(Cn1ncc2c(NC3CCCCC3)ncnc21)c1ccccc1 (stereo not shown) [VS1-007] | – | – | 87.0% | poor performance | 75.7 ± 18.8% | no effect on HIV replication | 70.6 ± 24.3% | – | – | – | – | –
